Experimental data from patent US20210267939A1, “COMPOSITIONS AND METHODS FOR TREATING NAFLD/NASH AND RELATED DISEASE PHENOTYPES” (priority 2018, published 2021).
“Also recorded” adds a separate entry of the source.

How the values were obtained:
Type in all cases: in vivo
Zucker fatty rats [1] = experiment: Other plasma analytes (lactate, lipids, ketones) in treated Zucker fatty rats; conditions: ZFR, BT2 20 mg/kg i.p. daily for one week, vs vehicle
Method: (§1) Individually housed, male 12 week-old Zucker fatty rats (ZFR, Charles River Laboratories) maintained on a custom control low fat (LF) diet (A11072001, Research Diets) were used for the BDK inhibition and PPM1K overexpression studies. For the BDK inhibition study, ZFR were administered the small molecule BDK inhibitor 3,6-dichlorobenzo[b]thiophene-2-carboxylic acid (BT2, Sigma) daily at a dose of 20 mg/kg dissolved in 200 ul of sterile dimethylsulfoxide by i.p. injection for 7 days. The control group was administered an equal volume of vehicle each day. […]
(§2) Plasma concentrations of the alpha-keto acids of leucine (α-keto-isocaproate, KIC), isoleucine (α-keto-β-methylvalerate, KMV) and valine (α-keto-isovalerate, KIV) were measured by LC-MS as previously described (Glynn et al., 2015; White et al., 2016). Other plasma analytes were measured on a Beckman DxC600 autoanalyzer, using reagents for lactate, total cholesterol, and triglycerides from Beckman, and non-esterified fatty acids (NEFA) and ketones (total and 3-hydroxybutyrate) from Wako (Richmond, Va.). Glycerol was measured using reagents from TG-B by Roche Diagnostics (Indianapolis, Ind.). Liver triglycerides were quantified using the triglyceride quantification kit from Abcam. Plasma insulin concentrations were measured with a Millipore EMD Rat insulin ELISA kit.

Zucker fatty rats [2] = experiment: Indirect calorimetry in BT2-treated Zucker fatty rats; conditions: ZFR, BT2 20 mg/kg i.p., day 6, hours following administration
Method: (§3) Individually housed, male 12 week-old Zucker fatty rats (ZFR, Charles River Laboratories) maintained on a custom control low fat (LF) diet (A11072001, Research Diets) were used for the BDK inhibition and PPM1K overexpression studies. For the BDK inhibition study, ZFR were administered the small molecule BDK inhibitor 3,6-dichlorobenzo[b]thiophene-2-carboxylic acid (BT2, Sigma) daily at a dose of 20 mg/kg dissolved in 200 ul of sterile dimethylsulfoxide by i.p. injection for 7 days. The control group was administered an equal volume of vehicle each day. On day 6, following an overnight fast, ZFR were subjected to a 1 g/kg i.p. glucose tolerance test (GTT) precisely 1 hr after administration of BT2 (20 mg/kg i.p.) or vehicle. The glucose tolerance test was performed as described (White, et al., 2016). Following the GTT, rats were returned to their normal cages and provided free access to food and water. Indirect calorimetry was performed in a second cohort of BT2 treated rats on day 6 of BT2 administration. Here ad-libitum fed rats were injected with BT2 (20 mg/kg i.p.) or vehicle immediately prior to being placed in an eight-chamber Oxymax system (Columbus Instruments) for seven hours. During their time in the metabolic cages all rats had free access to food and water. […]

BCKDH = experiment: Tissue BCKDH activity assay in treated Zucker fatty rats; conditions: ZFR, BT2 20 mg/kg i.p. daily for one week, vs vehicle
Method: Individually housed, male 12 week-old Zucker fatty rats (ZFR, Charles River Laboratories) maintained on a custom control low fat (LF) diet (A11072001, Research Diets) were used for the BDK inhibition and PPM1K overexpression studies. For the BDK inhibition study, ZFR were administered the small molecule BDK inhibitor 3,6-dichlorobenzo[b]thiophene-2-carboxylic acid (BT2, Sigma) daily at a dose of 20 mg/kg dissolved in 200 ul of sterile dimethylsulfoxide by i.p. injection for 7 days. The control group was administered an equal volume of vehicle each day. On day 6, following an overnight fast, ZFR were subjected to a 1 g/kg i.p. glucose tolerance test (GTT) precisely 1 hr after administration of BT2 (20 mg/kg i.p.) or vehicle. The glucose tolerance test was performed as described (White, et al., 2016). Following the GTT, rats were returned to their normal cages and provided free access to food and water. Indirect calorimetry was performed in a second cohort of BT2 treated rats on day 6 of BT2 administration. Here ad-libitum fed rats were injected with BT2 (20 mg/kg i.p.) or vehicle immediately prior to being placed in an eight-chamber Oxymax system (Columbus Instruments) for seven hours. During their time in the metabolic cages all rats had free access to food and water. The next morning, rats were euthanized in the fed state precisely 1 hr following a final dose of BT2 (20 mg/kg i.p.) or vehicle.
For the PPM1K overexpression study, male 12 week-old ZFR were administered two doses of cyclosporine (15 mg/kg i.p., Novartis) prior to adenovirus administration. The first dose of cyclosporine was given 24 hours prior and the second dose was administered immediately prior to tail vein injection of Ad-CMV-PPM1K or Ad-CMV-GFP adenovirus (2×10^12 viral particles per kg). Both viruses use the CMV promoter to drive transgene expression. […]
BCKDH activity assay: Tissue BCKDH activity was measured. […] The ^14CO2 contained in the trap was counted in a Beckman Coulter LS6500 liquid scintillation counter.

ATP citrate lyase (ACL) = experiment: Immunoblot of phospho-ser454 and total ACL in liver of treated Zucker fatty rats; conditions: ZFR, BT2 vs vehicle
Method: as §3, with “administration.” for “administration. Here ad-libitum fed rats were injected with BT2 (20 mg/kg i.p.) or vehicle immediately prior to being placed in an eight-chamber Oxymax system (Columbus Instruments) for seven hours. During their time in the metabolic cages all rats had free access to food and water.”
(§4) Immunoblotting: Tissue lysates used for immunoblotting were prepared in Cell Lysis Buffer (Cell Signaling Technologies) containing protease inhibitor tablets (Roche), phosphatase inhibitor cocktails 2 and 3 (Sigma), and 10 mM PMSF. […] Immunoblots were developed using a Li-Cor Odyssey CLx and quantified using the Li-Cor software.

Zucker fatty rats [3] = experiment: Circulating BCAA and BCKA in treated Zucker fatty rats; conditions: ZFR, BT2 20 mg/kg i.p. daily for one week, vs vehicle
Method: as §1
Metabolite profiling: Amino acids were measured in plasma and liver samples, and acylcarnitines in liver samples. […]
as §2, with “Plasma insulin concentrations were measured with a Millipore EMD Rat insulin ELISA kit.” left out

Zucker fatty rats [4] = experiment: 1 g/kg i.p. glucose tolerance test in treated Zucker fatty rats; conditions: ZFR, BT2 20 mg/kg i.p., day 6, 1 g/kg i.p. glucose, vs vehicle
Method: as §1, §2

BCKDH e1a = experiment: Immunoblot of phospho-ser293 BCKDH e1a in tissues of treated Zucker fatty rats; conditions: ZFR, BT2 20 mg/kg i.p. daily for one week, vs vehicle
Method: as §3, with “administration.” for “administration. Here ad-libitum fed rats were injected with BT2 (20 mg/kg i.p.) or vehicle immediately prior to being placed in an eight-chamber Oxymax system (Columbus Instruments) for seven hours. During their time in the metabolic cages all rats had free access to food and water.”
as §4

Zucker fatty rats [5] = experiment: Liver triacylglyceride content in treated Zucker fatty rats; conditions: ZFR, BT2 20 mg/kg i.p. daily for one week, vs vehicle
Method: as §1, §2

With O=C(O)c1sc2cc(Cl)ccc2c1Cl [BT2, 3,6-dichlorobenzo[b]thiophene-2-carboxylic acid] the “circulating TG, cholesterol, glycerol, non-esterified fatty acids (NEFA), or ketones” value (Zucker fatty rats [1]) was “no effects”, the lactate in circulation (Zucker fatty rats [1]) was “lower levels” and the “respiratory exchange ratio (RER)” value (Zucker fatty rats [2]) was “lowered”. For the same molecule, the “BCKDH enzyme activity in heart” value (BCKDH) was “increased”, the “BCKDH enzyme activity in liver” value (BCKDH) was “increased” and the “BCKDH enzyme activity in skeletal muscle” value (BCKDH) was “small increment”. The “ACL phosphorylation on ser454, immunoblot of liver lysates” value (ATP citrate lyase (ACL)) was “markedly less”, the “abundance of total ACL protein in liver” value (ATP citrate lyase (ACL)) was “trend for lower abundance” and the “circulating BCAA levels” value (Zucker fatty rats [3]) was “lowered”. For the same molecule, the “circulating branched-chain α-ketoacids (BCKA)” value (Zucker fatty rats [3]; 20 mg/kg) was “more dramatic lowering; also recorded: potently lowers”, the “glucose excursion during ipGTT” value (Zucker fatty rats [4]) was “significantly smaller” and the “insulin excursion during ipGTT” value (Zucker fatty rats [4]) was “significantly smaller”. The “BCKDH phosphorylation in skeletal muscle” value (BCKDH e1a) was “not associated with a detectable change”, the “BCKDH phosphorylation on serine 293 of the e1a subunit in liver and heart” value (BCKDH e1a) was “lower levels” and the “hepatic TG levels” value (Zucker fatty rats [5]) was “significantly lower”.
